Experimental data taken from patent US7790737B2, “Substituted pyrimidine compounds and their utility as CETP inhibitors” (Kowa Company, Ltd., priority 2007, dated 2010).

Biological target: T1, CETP (Homo sapiens, UniProt P11597)
T1 construct: from tissue; host or cells: human plasma
T1 sequence (P11597 18-493): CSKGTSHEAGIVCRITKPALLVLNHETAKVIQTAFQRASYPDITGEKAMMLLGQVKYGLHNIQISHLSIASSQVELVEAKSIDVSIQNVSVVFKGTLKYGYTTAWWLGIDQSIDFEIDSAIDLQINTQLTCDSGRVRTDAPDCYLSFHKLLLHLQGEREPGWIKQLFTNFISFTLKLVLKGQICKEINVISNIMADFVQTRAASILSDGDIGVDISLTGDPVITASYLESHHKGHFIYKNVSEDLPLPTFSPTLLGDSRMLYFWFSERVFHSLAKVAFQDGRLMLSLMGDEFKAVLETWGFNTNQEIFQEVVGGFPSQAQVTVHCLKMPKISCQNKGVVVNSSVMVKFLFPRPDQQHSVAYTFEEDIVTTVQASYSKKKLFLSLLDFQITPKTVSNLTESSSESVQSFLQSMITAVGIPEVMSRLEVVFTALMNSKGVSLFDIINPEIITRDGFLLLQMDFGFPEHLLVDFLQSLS
Test: Measurement of CETP inhibitory action in human plasma (Roar Biomedical CETP Activity kit, fluorescence)
Format: biochemical
Settings: human plasma incubated with compound at 37° C. for 4 hours; calculated from CETP inhibitory rate at two or more concentrations; read-out: IC50 (concentration inhibiting the CETP activity by 50%)
Experimental: A solution obtained by dissolving an exemplary compound or a comparative compound in polyethylene glycol/N-methyl-2-pyrrolidone (vol/vol=1/1) was added to human plasma, and the mixture was incubated in an incubator at 37° C. for 4 hours. The CETP activity in this plasma was measured with Cholesteryl Ester Transfer Protein Activity kit (Roar Biomedical, catalog No.: RB-CETP). Specifically, to each well of a 96-well plate, 95 μL of a buffer (10 mM Tris, 150 mM NaCl, 2 mM EDTA, pH 7.4), 2 μL of Donor particle and 2 μL of Acceptor particle were added, 1 μL of the human plasma after the incubation was added to the mixture, and the mixture was incubated in an incubator at 37° C. for 2 hours. After completion of the incubation, fluorescence intensity (FLU) was measured with a fluorescence plate reader (excitation wavelength: 465 nm, emission wavelength: 535 nm). In accordance with the following equation 1, the CETP activity (% of control) was obtained for the compounds of the examples and the comparative compounds for two or more concentrations. CETP activity (% of control)=(Sample FLU−Blank FLU)×100/(Control FLU−Blank FLU) (Equation 1) In the equation, the terms have the following meanings: Blank FLU: Fluorescence intensity of sample not added with plasma Control FLU: Fluorescence intensity of plasma not added with solution of compound Sample FLU: Fluorescence intensity of plasma added with solution of compound
A value obtained by subtracting the value of the CETP activity from 100 was defined as the CETP inhibitory rate of each exemplary compound, and a concentration inhibiting the CETP activity by 50% (IC50) was calculated for each exemplary compound from the values of the CETP inhibitory rate at two or more concentrations. As the comparative compound, the following compound was used, which is the pyrimidine compound having a benzyl(heterocyclylmethyl)amine structure described in Example 66 of Patent document 10 (International Patent Publication WO2006/073973).

SMILES	potency estimated from few doses
CCN(CC1CCCC1)c1nc2ccccc2cc1CN(Cc1cc(C(F)(F)F)cc(C(F)(F)F)c1)c1ncccn1 [Comparative Compound 1, reference compound]	20000 nM
CCN(CC1CCCC1)c1ccc(OC)nc1CN(c1ncc(OCC[S+](C)[O-])cn1)C(C)c1cc(C(F)(F)F)cc(C(F)(F)F)c1 (centres unmarked) [Example 2, N-{1-[3,5-bis(trifluoromethyl)phenyl]ethyl}-N-({3-[(cyclopentylmethyl)(ethyl)amino]-6-methoxypyridin-2-yl}methyl)-5-[2-(methylsulfinyl)ethoxy]pyrimidin-2-amine]	150 nM
CCN(CC1CCCC1)c1ccc(OC)nc1CN(c1ncc(OCCS(C)(=O)=O)cn1)C(C)c1cc(C(F)(F)F)cc(C(F)(F)F)c1 (centres unmarked) [Example 3, N-{1-[3,5-bis(trifluoromethyl)phenyl]ethyl}-N-({3-[(cyclopentylmethyl)(ethyl)amino]-6-methoxypyridin-2-yl}methyl)-5-[2-(methylsulfonyl)ethoxy]pyrimidin-2-amine]	150 nM
CCN(CC1CCCC1)c1nc2c(cc1CN(c1ncc(OCCS(C)(=O)=O)cn1)C(C)c1cc(C(F)(F)F)cc(C(F)(F)F)c1)c(C)nn2C (centres unmarked) [Example 5, 5-[({1-[3,5-bis(trifluoromethyl)phenyl]ethyl}{5-[2-(methylsulfonyl)ethoxy]pyrimidin-2-yl}amino)methyl]-N-(cyclopentylmethyl)-N-ethyl-1,3-dimethyl-1H-pyrazolo[3,4-b]pyridin-6-amine]	35 nM
CCN(CC1CCCC1)c1nc2ccccc2cc1CN(c1ncc(OCCS(C)(=O)=O)cn1)C(C)c1cc(C(F)(F)F)cc(C(F)(F)F)c1 (centres unmarked) [Example 7, 3-[({1-[3,5-bis(trifluoromethyl)phenyl]ethyl}{5-[2-(methylsulfonyl)ethoxy]pyrimidin-2-yl}amino)methyl]-N-(cyclopentylmethyl)-N-ethylquinolin-2-amine]	50 nM
CCN(CC1CCCC1)c1nc2ccc(OC)cc2cc1CN(c1ncc(OCCS(C)(=O)=O)cn1)C(C)c1cc(C(F)(F)F)cc(C(F)(F)F)c1 (centres unmarked) [Example 9, 3-[({1-[3,5-bis(trifluoromethyl)phenyl]ethyl}{5-[2-(methylsulfonyl)ethoxy]pyrimidin-2-yl}amino)methyl]-N-(cyclopentylmethyl)-N-ethyl-6-methoxyquinolin-2-amine]	500 nM
CCN(CC1CCCC1)c1nc2ccc(C(F)(F)F)cc2cc1CN(c1ncc(OCCS(C)(=O)=O)cn1)C(C)c1cc(C(F)(F)F)cc(C(F)(F)F)c1 (centres unmarked) [Example 11, 3-[({1-[3,5-bis(trifluoromethyl)phenyl]ethyl}{5-[2-(methylsulfonyl)ethoxy]pyrimidin-2-yl}amino)methyl]-N-(cyclopentylmethyl)-N-ethyl-6-trifluoromethylquinolin-2-amine]	80 nM
CCN(CC1CCCC1)c1nc2ccc(C)cc2cc1CN(c1ncc(OCCS(C)(=O)=O)cn1)C(C)c1cc(C(F)(F)F)cc(C(F)(F)F)c1 (centres unmarked) [Example 13, 3-[({1-[3,5-bis(trifluoromethyl)phenyl]ethyl}{5-[2-(methylsulfonyl)ethoxy]pyrimidin-2-yl}amino)methyl]-N-(cyclopentylmethyl)-N-ethyl-6-methylquinolin-2-amine]	80 nM
CCN(CC1CCCC1)c1nc(C)ccc1CN(c1ncc(OCCS(C)(=O)=O)cn1)C(C)c1cc(C(F)(F)F)cc(C(F)(F)F)c1 (centres unmarked) [Example 15, N-{1-[3,5-bis(trifluoromethyl)phenyl]ethyl}-N-({2-[(cyclopentylmethyl)(ethyl)amino]-6-methylpyridin-3-yl}methyl)-5-[2-(methylsulfonyl)ethoxy]pyrimidin-2-amine]	200 nM
CCc1ccc(CN(c2ncc(OCCS(C)(=O)=O)cn2)C(C)c2cc(C(F)(F)F)cc(C(F)(F)F)c2)c(N(CC)CC2CCCC2)n1 (centres unmarked) [Example 17, N-{1-[3,5-bis(trifluoromethyl)phenyl]ethyl}-N-({2-[(cyclopentylmethyl)(ethyl)amino]-6-ethylpyridin-3-yl}methyl)-5-[2-(methylsulfonyl)ethoxy]pyrimidin-2-amine]	45 nM
CCN(CC1CCCC1)c1nc(C)c(C)cc1CN(c1ncc(OCCS(C)(=O)=O)cn1)C(C)c1cc(C(F)(F)F)cc(C(F)(F)F)c1 (centres unmarked) [Example 19, N-{1-[3,5-bis(trifluoromethyl)phenyl]ethyl}-N-({2-[(cyclopentylmethyl)(ethyl)amino]-5,6-dimethylpyridin-3-yl}methyl)-5-[2-(methylsulfonyl)ethoxy]pyrimidin-2-amine]	30 nM
CCN(CC1CCCC1)c1nc2c(cc1CN(c1ncc(OCCS(C)(=O)=O)cn1)C(C)c1cc(C#N)cc(C(F)(F)F)c1)c(C)nn2C (centres unmarked) [Example 23, 3-{1-[({6-[(cyclopentylmethyl)(ethyl)amino]-1,3-dimethyl-1H-pyrazolo[3,4-b]pyridin-5-yl}methyl){5-[2-(methylsulfonyl)ethoxy]pyrimidin-2-yl}amino]ethyl}-5-(trifluoromethyl)benzonitrile]	150 nM

Test system: CETP
Test: Measurement of CETP inhibitory activity in blood of hamster (single oral administration)
Format: in vivo
Settings: hamster plasma, single oral dose 30 mg/kg in olive oil, blood collected 2 hours after administration, n=3; control 33.7 ± 2.3
Experimental: 1: Labeling of Donor Lipoprotein (HDL3 Fraction) with ^3H-Cholesterol and Preparation of Acceptor Lipoprotein (LDL Fraction)
The donor lipoprotein was prepared by adding KBr to plasma of healthy human subject (50 mL) to adjust the specific gravity (d) of the plasma to be 1.125, centrifuging the mixture at 100,000 rpm and 4° C. for 2.5 hours (Optima Max-E TLA-100.2 rotor, Beckman), and collecting the lower layer (HDL3 fraction, d>1.125). The resulting fraction was dialyzed against PBS (10 mM Na2HPO4, 10 mM NaH2PO4, 0.15 M NaCl, 1 mM EDTA-2Na, pH 7.4). Then, a 95% ethanol solution of 9.25 MBq 1, 2-3H(N)cholesterol (NEN™, Life Science Products, USA) was added to the sample with stirring, and the mixture was incubated at 37° C. for 18 hours. […]
To 10 μL of the hamster plasma, 5 μL of ^3H-labeled HDL3 and […] of LDL were added, and the final volume of the mixture was made 600 μL with a TBS solution (10 mM Tris, 0.15 M NaCl, pH 7.4). […] Then, radioactivity of 3H was measured with a liquid scintillation counter (TRI-CARB 2700 TR, Packard). […] CETP activity (%)=(Blank dpm−Sample dpm)×100/(Blank dpm) (Equation 2) In the equation, the terms have the following meanings: Blank dpm: Value of 3H radioactivity of sample not added with plasma Sample dpm: Value of ^3H radioactivity of sample added with compound or control sample.

SMILES	Average CETP activity ± standard deviation (%)
CCN(CC1CCCC1)c1nc2ccccc2cc1CN(Cc1cc(C(F)(F)F)cc(C(F)(F)F)c1)c1ncccn1 [Comparative Compound 1, reference compound]	30.3 ± 4.2%
CCN(CC1CCCC1)c1nc2c(cc1CN(c1ncc(OCCS(C)(=O)=O)cn1)C(C)c1cc(C(F)(F)F)cc(C(F)(F)F)c1)c(C)nn2C (centres unmarked) [Example 5, 5-[({1-[3,5-bis(trifluoromethyl)phenyl]ethyl}{5-[2-(methylsulfonyl)ethoxy]pyrimidin-2-yl}amino)methyl]-N-(cyclopentylmethyl)-N-ethyl-1,3-dimethyl-1H-pyrazolo[3,4-b]pyridin-6-amine]	3.7 ± 3.2%
